According to PubChem BioAssay AID1190 (EPA DSSTox, 2008):
Active and inactive are the calls of the source. How the calls were made is not given here.

Test system: dog and primate chronic carcinogenicity bioassays, TD50
Assay: DSSTox (CPDBAS) Carcinogenic Potency Database Summary Dog & Primates Bioassay Results
Description: The Carcinogenic Potency Database (CPDB) is a unique and widely used international resource of the results of over 6500 chronic, long-term animal cancer tests on over 1500 chemical substances. The CPDB provides easy access to the bioassay literature, with qualitative and quantitative analyses of both positive and negative experiments that have been published over the past 50 years in the general literature and by the National Cancer Institute/National Toxicology Program. The CPDB standardizes the diverse literature of cancer bioassays that vary widely in protocol, histopathological examination and nomenclature, and in the published author's choices of what information to provide in their papers. Results are reported in the CPDB for tests in rats, mice, hamsters, dogs, and nonhuman primates, and are based on the most positive result among all experiments for each sex-species. The DSSTox CPDBAS (all species) file incorporates data from the CPDB Summary Tables for the full list of over 1500 chemical substances tested in at least one species. Summary bioassay results for Dogs and Non-Human Primates (TD50, tumor sites) are provided in the CPDB Summary Tables and the DSSTox CPDBAS file for more than 30 chemical substances.
TD50 is a standardized quantitative measure of carcinogenic potency (analogous to an LD50) and is reported in the CPDB Summary Table for each species. Comments pertaining to the Dog or Primates (Cynomolgus, Rhesus, Bush Baby, Tree Shrew) TD50 (corresponding to footnote indices in the original CPDB Summary Table) are provided in the TD50_Dog_Primates_Note field. […] Target sites are reported for each species with a positive result in the CPDB on the basis of a positive author's opinion for the particular site and using all results from both the general literature and NCI/NTP bioassays. If a chemical has two or more target sites listed, the results may be from different experiments, and a single site may be a target organ in more than one experiment, as well. Blank entry in TargetSites field indicates no results reported.

Row | SMILES | outcome | Potency [mg/kg/day]
1 | Cc1ccc2cc3c(ccc4ccccc43)c3c2c1CC3 | inactive; no positive results | –
2 | Nc1ccc2ccccc2c1 | – | 5.74
3 | CC(=O)Nc1ccc2c(c1)Cc1cc(NC(C)=O)ccc1-2 | inactive; no positive results | –
4 | O=C1NS(=O)(=O)c2ccccc21 | inactive; no positive results | –
5 | O=NN1CCCCC1 | – | 2.76
6 | Cn1c(N)nc2c3cccnc3ccc21 | active | –
7 | COc1cc2c(c3oc(=O)c4c(c13)CCC4=O)C1C=COC1O2 (stereo unspecified) | – | 0.0082
8 | CNNCc1ccc(C(=O)NC(C)C)cc1 | – | 4.21
9 | C/[N+]([O-])=N/CO[C@@H]1O[C@H](CO)[C@@H](O)[C@H](O)[C@H]1O | – | 0.0657
10 | CCCN(CCC)N=O | – | 0.0121
11 | C#C[C@@]1(O)CC[C@H]2[C@@H]3CCC4=CCCC[C@@H]4[C@H]3CC[C@@]21C | active | –
12 | CCN(CC)N=O | – | 0.0536
13 | C#C[C@]1(OC(C)=O)CC[C@H]2[C@@H]3CCC4=CC(=O)CC[C@@H]4[C@H]3CC[C@@]21C | inactive; no positive results | –
14 | Cn1cnc([N+](=O)[O-])c1Sc1ncnc2nc[nH]c12 | inactive; no positive results | –
15 | CC(=O)Nc1ccc2c(c1)Cc1ccccc1-2 | inactive; no positive results | –
16 | CN(C)N=O | inactive; no positive results | –

Row | SMILES | outcome | Potency [mg/kg/day]
17 | Cc1cccc(N=Nc2ccc(N(C)C)cc2)c1 | inactive; no positive results | –
18 | CN(N=O)C(N)=O | – | 7.18
19 | ClC(Cl)Cl | inactive | –
20 | Cc1cc(C)c(S(=O)(=O)O)cc1N=Nc1cc(S(=O)(=O)O)c2ccccc2c1O | inactive | –
21 | CCOC(N)=O | – | 65.2
22 | Clc1ccc(C(c2ccc(Cl)cc2)C(Cl)(Cl)Cl)cc1 | inactive; no positive results | –
23 | O=P1(N(CCCl)CCCl)NCCCO1 (stereo unspecified) | inactive; no positive results | –
24 | O=[As](O)(O)O | inactive | –
25 | Nc1ccc(Cc2ccc(N)c(Cl)c2)cc1Cl | active | –
26 | N[C@@H](Cc1ccc(N(CCCl)CCCl)cc1)C(=O)O | active; no positive results | –
27 | CN(C)c1ccc(N=Nc2ccccc2)cc1 | inactive; no positive results | –
28 | O=S(=O)(O)NC1CCCCC1 | inactive; no positive results | –
29 | COc1cc2c(c3oc4cccc(O)c4c(=O)c13)C1C=COC1O2 (stereo unspecified) | active | –
30 | Nc1ccc(-c2ccc(N)c(Cl)c2)cc1Cl | active | –
31 | COc1cccc2c1C(=O)c1c(O)c3c(c(O)c1C2=O)C[C@@](O)(C(=O)CO)C[C@@H]3O[C@H]1C[C@H](N)[C@H](O)[C@H](C)O1 | inactive; no positive results | –
